System: moderate-to-severe chronic spontaneous urticaria (CSU)
Test: Phase 2 CSU study: urticaria activity score over 7 days (UAS7)
Format: in vivo, human
Conditions: Omalizumab-Naïve
Description: The study comprises a 12 week, randomized, double-blind, placebo-controlled, multi-center, dose-ranging efficacy and safety phase, followed by a 40 week open label extension (OLE) phase (see FIG. 1). The study consists of three phases and an optional OLE phase. […] Clinically, CSU is characterized by the spontaneous and recurrent appearance of pruritic hives. The proposed primary endpoints were the UAS7 at Week 12 in EU and EU reference countries and the ISS7 in the US. Regardless of where a participant was from, all assessments were the same. The UAS7 score is a composite score containing both the HSS7 and the ISS7. This allowed a global assessment of the two key components of urticaria: hives and itch. […] The UAS is a validated PRO measure. […] The daily UAS scores range from 0 to 6 point/day. […] Patients were to complete the UAS using the e-diary. […] The following secondary endpoints were to be analyzed using the same approach as for the primary endpoint: • Change from baseline in UAS7 at Week 4 • Change from baseline in UAS7 at Week 12 (for US and US reference countries) • Change from baseline in ISS7 at Week 12 (except US and US reference countries) • Change from baseline in HSS7 at Week 12 The following responder secondary endpoints were to be analyzed using the Cochran-Mantel-Haenszel test adjusted by region: • Proportion of participants with UAS7<6 at Week 12 • Proportion of participants with UAS7=0 at Week 12 Participants who received selected prohibited medications and/or rescue medications were to be considered as non-responders for time points after the medication usage. For other participants, all available data including those collected during the off-treatment period were to be used to determine the responder/non-responder status. Missing data were to be considered as non-responders.

[1] = Baseline Total IgE (IU/mL) ≥300, 400 mg BID
[2] = Baseline Total IgE (IU/mL) ≥300, 400 mg QPM
[3] = Baseline Total IgE (IU/mL) ≥300, 400 mg TID
[4] = Baseline UAS7 score <28, 400 mg BID
[5] = Baseline UAS7 score <28, 400 mg QPM
[6] = Baseline UAS7 score <28, 400 mg TID
[7] = Baseline UAS7 score ≥28, 400 mg BID
[8] = Baseline UAS7 score ≥28, 400 mg QPM
[9] = Baseline UAS7 score ≥28, 400 mg TID
[10] = Duration of disease (years) 2-10, 400 mg BID
[11] = Duration of disease (years) 2-10, 400 mg QPM
[12] = Duration of disease (years) 2-10, 400 mg TID
[13] = Duration of disease (years) <2, 400 mg BID
[14] = Duration of disease (years) <2, 400 mg QPM
[15] = Duration of disease (years) <2, 400 mg TID
[16] = Duration of disease (years) >10, 400 mg BID
[17] = Duration of disease (years) >10, 400 mg QPM
[18] = Duration of disease (years) >10, 400 mg TID
[19] = Ethnicity Non-Hispanic, 400 mg BID
[20] = Ethnicity Non-Hispanic, 400 mg QPM

Compound: CC(C)(C=C(C#N)C(=O)N1CCC[C@@H](n2nc(-c3ccc(Oc4ccccc4)cc3F)c3c(N)ncnc32)C1)N1CCN(C2COC2)CC1 [rilzabrutinib, (R)-2-[3-[4-amino-3-(2-fluoro-4-phenoxy-phenyl)pyrazolo[3,4-d]pyrimidin-1-yl]piperidine-1-carbonyl]-4-methyl-4-[4-(oxetan-3-yl)piperazin-1-yl]pent-2-enenitrile]
- Change from Baseline in UAS7 at Week 12: Mean (SD) (Baseline Total IgE (IU/mL) ≥100, 400 mg TID): −17.31 (9.51)
- Change from Baseline in UAS7 at Week 12: LS Mean (SE) [1]: −14.22 (3.59)
- Change from Baseline in UAS7 at Week 12: LS Mean Diff vs. placebo (95% CI) [1]: −1.77 (−12.00, 8.47)
- Change from Baseline in UAS7 at Week 12: LS Mean (SE) [2]: −8.04 (3.57)
- Change from Baseline in UAS7 at Week 12: LS Mean Diff vs. placebo (95% CI) [2]: 4.42 (−5.58, 14.42)
- Change from Baseline in UAS7 at Week 12: Mean (SD) [2]: −9.60 (9.52)
- Change from Baseline in UAS7 at Week 12: LS Mean (SE) [3]: −14.94 (3.46)
- Change from Baseline in UAS7 at Week 12: LS Mean Diff vs. placebo (95% CI) [3]: −2.48 (−12.37, 7.41)
- Change from Baseline in UAS7 at Week 12: Mean (SD) [3]: −16.12 (9.22)
- Change from Baseline in UAS7 at Week 12: LS Mean Diff vs. placebo (95% CI) [4]: −4.49 (−12.35, 3.38)
- Change from Baseline in UAS7 at Week 12: Mean (SD) [4]: −11.43 (8.06)
- Change from Baseline in UAS7 at Week 12: LS Mean (SE) [5]: −5.87 (3.45)
- Change from Baseline in UAS7 at Week 12: LS Mean Diff vs. placebo (95% CI) [5]: −1.46 (−10.06, 7.14)
- Change from Baseline in UAS7 at Week 12: Mean (SD) [5]: −8.39 (3.86)
- Change from Baseline in UAS7 at Week 12: LS Mean Diff vs. placebo (95% CI) [6]: −7.34 (−15.21, 0.52)
- Change from Baseline in UAS7 at Week 12: Mean (SD) [6]: −13.43 (7.05)
- Change from Baseline in UAS7 at Week 12: LS Mean (SE) [7]: −17.23 (2.81)
- Change from Baseline in UAS7 at Week 12: LS Mean Diff vs. placebo (95% CI) [7]: −4.13 (−11.78, 3.52)
- Change from Baseline in UAS7 at Week 12: Mean (SD) [7]: −16.73 (14.20)
- Change from Baseline in UAS7 at Week 12: LS Mean (SE) [8]: −11.17 (2.39)
- Change from Baseline in UAS7 at Week 12: LS Mean Diff vs. placebo (95% CI) [8]: 1.94 (−5.16, 9.03)
- Change from Baseline in UAS7 at Week 12: LS Mean (SE) [9]: −19.91 (2.64)
- Change from Baseline in UAS7 at Week 12: LS Mean Diff vs. placebo (95% CI) [9]: −6.81 (−14.23, 0.62)
- Change from Baseline in UAS7 at Week 12: Mean (SD) [9]: −22.66 (12.35)
- Change from Baseline in UAS7 at Week 12: Mean (SD) (Baseline weight (kg) <72.9 (Median), 400 mg BID): −12.97 (9.84)
- Change from Baseline in UAS7 at Week 12: Mean (SD) (Baseline weight (kg) <72.9 (Median), 400 mg QPM): −7.98 (7.20)
- Change from Baseline in UAS7 at Week 12: Mean (SD) (Baseline weight (kg) <72.9 (Median), 400 mg TID): −20.83 (13.25)
- Change from Baseline in UAS7 at Week 12: LS Mean (SE) [10]: −12.88 (3.03)
- Change from Baseline in UAS7 at Week 12: LS Mean Diff vs. placebo (95% CI) [10]: −0.05 (−8.24, 8.14)
- Change from Baseline in UAS7 at Week 12: Mean (SD) [10]: −15.56 (14.75)
- Change from Baseline in UAS7 at Week 12: LS Mean (SE) [11]: −9.73 (2.58)
- Change from Baseline in UAS7 at Week 12: LS Mean Diff vs. placebo (95% CI) [11]: 3.11 (−4.51, 10.72)
- Change from Baseline in UAS7 at Week 12: Mean (SD) [11]: −10.83 (9.70)
- Change from Baseline in UAS7 at Week 12: LS Mean (SE) [12]: −16.44 (3.07)
- Change from Baseline in UAS7 at Week 12: LS Mean Diff vs. placebo (95% CI) [12]: −3.61 (−11.80, 4.58)
- Change from Baseline in UAS7 at Week 12: Mean (SD) [12]: −17.51 (11.39)
- Change from Baseline in UAS7 at Week 12: LS Mean (SE) [13]: −16.30 (2.66)
- Change from Baseline in UAS7 at Week 12: LS Mean Diff vs. placebo (95% CI) [13]: −9.24 (−17.02, −1.46)
- Change from Baseline in UAS7 at Week 12: Mean (SD) [13]: −14.54 (10.00)
- Change from Baseline in UAS7 at Week 12: LS Mean (SE) [14]: −10.62 (3.36)
- Change from Baseline in UAS7 at Week 12: LS Mean Diff vs. placebo (95% CI) [14]: −3.55 (−12.28, 5.17)
- Change from Baseline in UAS7 at Week 12: LS Mean (SE) [15]: −17.20 (3.03)
- Change from Baseline in UAS7 at Week 12: LS Mean Diff vs. placebo (95% CI) [15]: −10.14 (−18.42, −1.86)
- Change from Baseline in UAS7 at Week 12: Mean (SD) [15]: −19.20 (11.00)
- Change from Baseline in UAS7 at Week 12: LS Mean (SE) [16]: 8.87 (12.67)
- Change from Baseline in UAS7 at Week 12: LS Mean Diff vs. placebo (95% CI) [16]: 14.79 (−14.26, 43.85)
- Change from Baseline in UAS7 at Week 12: Mean (SD) [16]: −1.83 (NC)
- Change from Baseline in UAS7 at Week 12: LS Mean Diff vs. placebo (95% CI) [17]: 4.87 (−13.68, 23.41)
- Change from Baseline in UAS7 at Week 12: Mean (SD) [17]: −4.70 (7.74)
- Change from Baseline in UAS7 at Week 12: LS Mean (SE) [18]: −18.73 (5.22)
- Change from Baseline in UAS7 at Week 12: LS Mean Diff vs. placebo (95% CI) [18]: −12.81 (−29.81, 4.20)
- Change from Baseline in UAS7 at Week 12: Mean (SD) [18]: −23.13 (14.76)
- Change from Baseline in UAS7 at Week 12: LS Mean (SE) (Ethnicity Hispanic, 400 mg BID): −10.31 (3.59)
- Change from Baseline in UAS7 at Week 12: LS Mean Diff vs. placebo (95% CI) (Ethnicity Hispanic, 400 mg BID): 2.24 (−7.72, 12.19)
- Change from Baseline in UAS7 at Week 12: Mean (SD) (Ethnicity Hispanic, 400 mg BID): −10.23 (11.81)
- Change from Baseline in UAS7 at Week 12: LS Mean (SE) (Ethnicity Hispanic, 400 mg QPM): −8.80 (2.97)
- Change from Baseline in UAS7 at Week 12: LS Mean Diff vs. placebo (95% CI) (Ethnicity Hispanic, 400 mg QPM): 3.74 (−5.35, 12.83)
- Change from Baseline in UAS7 at Week 12: Mean (SD) (Ethnicity Hispanic, 400 mg QPM): −10.26 (9.92)
- Change from Baseline in UAS7 at Week 12: LS Mean (SE) (Ethnicity Hispanic, 400 mg TID): −13.76 (3.78)
- Change from Baseline in UAS7 at Week 12: LS Mean Diff vs. placebo (95% CI) (Ethnicity Hispanic, 400 mg TID): −1.22 (−11.34, 8.91)
- Change from Baseline in UAS7 at Week 12: Mean (SD) (Ethnicity Hispanic, 400 mg TID): −15.49 (12.69)
- Change from Baseline in UAS7 at Week 12: LS Mean (SE) [19]: −16.16 (2.46)
- Change from Baseline in UAS7 at Week 12: LS Mean Diff vs. placebo (95% CI) [19]: −7.92 (−14.63, −1.20)
- Change from Baseline in UAS7 at Week 12: Mean (SD) [19]: −16.52 (12.39)
- Change from Baseline in UAS7 at Week 12: LS Mean (SE) [20]: 9.79 (2.59)
- Change from Baseline in UAS7 at Week 12: LS Mean Diff vs. placebo (95% CI) [20]: −1.54 (−8.49, 5.41)
